The record followed here is patent US8637679B2, “Process for the isolation of organic compounds useful for the treatment of cancer” (Council of Scientific and Industrial Research, priority 2011, dated 2014).

SMILES strings stand for the structures.

For one data set, the system named is MIAPaCa-2. In words: Scratch-wound haptotaxis assay, MIAPaCa-2. The data set is classed as cell-based, human. The conditions noted are these: MIAPaCa-2, highest treated cells, 6 hrs. The method, then: Highly and moderately invasive pancreatic cancer cell lines, MIAPaCa-2 and BxPC3 (1×10^6/ml/well) were cultured to >90% confluence in 6 well plate. Consequently, cell were rinsed with PBS and starved in low serum media (2 ml containing 0.5%-0.1% serum in RPMI-1640 for MIAPaCa-2 and BxPC-3) for overnight. On the following day, three separate scratch-wounds were made through the confluent cells. Scratched plate was rinsed with PBS and replaced with serum starved media containing successive doses of mahanine or EtOH for 6 hrs. Picture was taken by using phase contrast at 10× accordingly.

The next data set deals with T98G. In words: MTT cell viability assay, T98G. The data set is classed as cell-based, human. As to conditions: Homo sapiens, 48 hrs. The method, then: (§1) Human cervical cancer cell lines (HeLa, ME-180 and SiHa), brain tumor cell lines (U87MG, U373MG, U87MG EGFRvIII, T98G, A172 and LN229), lymphoid leukemia (MOLT-3, MOLT-4, REH and CEMC-7), myloid leukemia (K562), pancreatic cancer (MIAPaCa-2, AsPC-1, Panc-1 and Panc 10.05), lung cancer (A549) and colon cancer (HCT116 and SW480) cell lines from American Type Culture Collection, Manassas, Va., USA were grown in IMDM or RPMI (cell specific) Medium supplemented with 10% fetal bovine serum and 1% antibiotic-antimycotic. Cells were cultured in 37° C. in an atmosphere of 5% CO2.
(§2) Viability of cancer cell lines after treatment as at the indicated times was determined by MTT assay. Briefly, 10,000 cells were plated in triplicate in 96 well plates and incubated for 24 and 48 hours in complete media in presence of varying dose of mahanine (0-50 μM). 100 ug MTT was added in each well. Incubate the plate for 1-4 hours at 37° C. and humidified 5% CO2 atmosphere. Absorbance was recorded at 550 nm with 96 well plate readers.
In general terms: Tetrazolium assays rely on reduction of a dye to a coloured formazan, in cell work by metabolically active cells.

For another data set, the target named is Hsp90β (Homo sapiens, UniProt P08238). The data set can be described thus: γ-ATP sepharose binding assay, Hsp90β. The conditions noted are these: mahanine at 50 and 100 μM. The method, then: 5 μg of purified Hsp90α and Hsp90β were pre-incubated separately on ice with 200 μL incubation buffer (10 mM Tris-Hcl, 50 mM KCl, 5 mM MgCl2, 2 mM DTT, 20 mM Na2MoO4, 0.01% NP40, pH 7.5) containing mahanine or 17-AAG and incubated for 30 mins on ice. After the incubation, 25 μL pre-equilibrated γ-phosphate ATP sepharose added and again incubated at 37° C. with frequent agitation.
Sepharose subsequently washed and analyzed by SDS-PAGE. Then the blot was probed with anti Hsp90 antibody and developed by ECL.

The test system of the next data set is Panc1. In words: MTT cell viability assay, Panc1. In kind it is cell-based, human. As to conditions: Homo sapiens, PANC-1; Panc1, 48 hrs. On the procedure: as §1, §2
A further data set deals with A172. The data set can be described thus: MTT cell viability assay, A172. The data set is classed as cell-based, human. As to conditions: Homo sapiens, A 172; A172, 48 hrs. The method, then:
as §1, §2

Data set [1] has as its system Normal cells [heart, liver, muscle and peripheral blood mononuclear cells (PBMC)]. In words: In vitro testing on normal cells. In kind it is cell-based, rat. The method, then: The cardiomyocytes from 2-day-old neonatal rat were isolated. Briefly, heart was excised and minced in pre warmed (37° C.) Ads buffer (1.2M NaCl, 198 mM HEPES, 54 mM KCl, 8.3 mM MgSO4, 55.4 mM glucose, 95 mM NaH2PO4), digested in typeII Collagenase 0.05% and Pancreatin in 3-successive digestions of 15 minutes each. Supernatant was pooled and cells palleted at 2000 g, 10 minutes. Cells were resuspended and plated in collagen coated T-25 flaks in Medium-199 enriched with 10% Fetal Bovine Serum and 1% antibiotic-antimycotic.
The hepatocytes from 2-day-old neonatal rat were isolated. Briefly, The liver were perfused through the portal vein with a calcium-free solution consisting of 150 mM NaCl, 2.8 mM KCl, 5.5 mM glucose, and 25 mM HEPES (pH 7.6) for 10 min, followed by mincing and digestion in DMEM containing 0.05% collagenase type IV for 30 minutes. The cells were centrifuged (2000 g, 10 minutes) and dispersed in DMEM enriched with 10% fetal Bovine Serum, 1% antibiotic-antimycotic.
The skeletal muscles from 2-day-old neonatal rat were isolated. Briefly, Soleus muscles were dissected minced and digested with 0.2% Type II Collagenase and 0.05% trypsin in Phosphate buffered Saline (PBS) pH 7.4, 0.15 M NaCl. […]
Viability of cancer cell lines after treatment as at the indicated times was determined by MTT assay. […] Absorbance was recorded at 550 nm with 96 well plate readers.

Data set [2] relates to glioma cells (U87MG, U373MG, LN229, A172 and T98G). The data set can be described thus: MTT assay, panel of glioma cell lines. In kind it is cell-based, human. As to conditions: Homo sapiens, Glioma cell, range over U87MG, 48 hr, read-out: IC50 values against different glioma cell lines. On the procedure:
as §1, §2

Data set [3] has as its system Hsp90 client proteins (Akt). In words: Western blot of Hsp90 client proteins. The data set is classed as cell-based, human. The conditions noted are these: cervical and pancreatic cancer cell lines, 24 hrs. On the procedure: Different human cancer cells (1×10^6 cells) were incubated with complete medium alone or with different dose of Mahanine (10-20 μM) as indicated. Cells were detached using trypsin-EDTA solution. They were collected by centrifugation at 1500 g for 10 mins and lysed by sonication. Aliquots containing 60 μg total cellular protein were separated by 10% SDS-PAGE and transferred to nitrocellulose membrane (MILIPORE, Bedford, Mass., USA). Membrane was blocked with blocking buffer for 1 hour at room temperature and probed with desired primary antibody Hsp90, Hsp70, Hsp40, p23, HOP, Cdc37, B-Raf, Stat-3, Bcl-xl, Akt, PARP, β-actin (Cell signaling technology, USA) and caspase-3 (Santa Cruz, USA), caspase9, cytochrome c (cell signaling technology, USA) for overnight at 4° C. followed by HRP conjugated secondary antibody and detected by ECL. For the detection of association of the Hsp90-Cdc37, Hsp90-p23 and Hsp90-HOP, total cell lysate (400 μg) was treated with anti-Hsp-90 antibody (1:100 dilutions) and incubated overnight at 4° C. The chaperonic complex was resolved by SDS-PAGE (10%), transferred and probed separately with anti-Cdc37, anti-HOP, anti-p23 and anti-Hsp-90 antibodies. In the few immunoprecipitation experiments anti-Cdc37 used as precipitating antibody and Hsp90 was used as detection antibody. […]
(In general: A western blot detects proteins with antibodies after separation by electrophoresis.)

Hsp90β, sequence (P08238 whole entry): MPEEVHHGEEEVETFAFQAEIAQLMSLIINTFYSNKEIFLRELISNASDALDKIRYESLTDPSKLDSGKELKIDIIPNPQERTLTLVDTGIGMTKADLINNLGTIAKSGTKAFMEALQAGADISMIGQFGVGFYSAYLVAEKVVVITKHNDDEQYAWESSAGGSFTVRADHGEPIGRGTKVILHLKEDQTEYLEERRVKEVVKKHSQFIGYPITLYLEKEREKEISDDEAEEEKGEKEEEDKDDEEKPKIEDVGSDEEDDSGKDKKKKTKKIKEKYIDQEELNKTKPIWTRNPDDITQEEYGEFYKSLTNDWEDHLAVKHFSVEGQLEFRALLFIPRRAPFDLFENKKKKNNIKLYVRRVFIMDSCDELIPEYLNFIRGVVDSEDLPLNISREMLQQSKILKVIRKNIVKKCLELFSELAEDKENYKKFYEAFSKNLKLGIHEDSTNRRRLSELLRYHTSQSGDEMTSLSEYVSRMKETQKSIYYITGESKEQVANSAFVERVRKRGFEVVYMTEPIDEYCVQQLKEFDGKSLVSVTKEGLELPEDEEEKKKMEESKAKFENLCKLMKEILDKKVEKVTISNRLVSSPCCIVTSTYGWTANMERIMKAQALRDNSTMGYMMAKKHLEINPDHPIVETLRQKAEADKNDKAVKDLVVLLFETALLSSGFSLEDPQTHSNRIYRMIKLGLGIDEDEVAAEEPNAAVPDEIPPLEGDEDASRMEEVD

One may read the IC50 as the midpoint of a concentration-inhibition curve. A word on the inhibition: it is the change of the read-out against control, counted positive when it falls. In the case of `CC(C)=CCCC1(C)C=Cc2c(c(C)cc3c2[nH]c2cc(O)ccc23)O1` (stereo not drawn) [Mahanine, mahanine], the “wound closure / migratory cells” value in the data set with MIAPaCa-2 is less than 5%. For the same compound, the IC50 was 16.1 ± 0.9 µM with T98G, 16.5 ± 0.2 µM in the data set with Panc1, 11.6 ± 1 µM in the data set with A172 and 12 to 17 µM in data set [2]. The “effect on ATP binding to purified Hsp90” value on Hsp90β was “could not reduce”. Further, the inhibition at 50 µM in data set [1] (PBMC, mahanine at 50 μM, normal rat tissue cells, Vero and WI-38) lay within 15 to 20%. For the same compound, the “sensitivity of normal cells” value in data set [1] (heart, liver, muscle and PBMC, in vitro) is on record as “less sensitive”. Further, in data set [3], the “dose enough to start significant downregulation of Akt level” value was 15 µM.
